US20050152911A1, “Norovirus monoclonal antibodies and peptides” (priority 2003, published 2005)
Ends that are not written are not given here.

Columns and labels:
[1] = test system: rSMV binding to CaCo-2 cells; conditions: serial dilutions of peptide, free and linked to carrier; Example 4 written in present tense
[2] = test system: rNV binding to CaCo-2 cells; conditions: serial dilutions of peptide, free and linked to carrier; Example 4 written in present tense

Sequence | reduction of binding of rSMV to CaCo-2 cells [1] | reduction of binding of rNV to CaCo-2 cells [2]
WLPAPIDKL [peptide 1800, WLPAPIDKL] | reduces binding | 
WTRGGHGL [compound 1731, WTRGGHGL] |  | reduce the binding
WTRGQHQL [compound 1732, WTRGQHQL] |  | reduce the binding
WTRGSHNL [peptide 1730, WTRGSHNL] |  | reduce the binding
